# Data published in patent US4490370A, “Naphthylglycyl cephalosporin derivatives” (priority 1983, dated 1984).
# Where two headings read alike, the source gives them in different places.
# Tests used:
# Assay type in all cases: cell-based
# Strep. A = experiment: Agar dilution MIC, Strep. A; conditions: Table I, strain C203; read-out: MIC
# Text: (§1) A typical and preferred compound provided by this invention is 7-(2-naphthylglycylamido)-3-methyl-3-cephem-4-carboxylic acid, the compound of Example 3. The antibacterial activity of this compound and several others of the invention has been determined in standard in vitro agar dilution assays against a variety of gram positive microorganisms. The following Tables present typical minimum inhibitory concentrations (MIC's) in μg/ml for the compounds when evaluated against the indicated microorganisms. MIC's for several known compounds are also presented for comparison.
# Klebsiella = experiment: Agar dilution MIC, Klebsiella; conditions: Klebsiella; Table I, strain X26; read-out: MIC
# Text: as §1
# Staph. epi = experiment: Agar dilution MIC, Staph. epi; conditions: read-out: MIC
# Text: (§2) The following Tables present typical minimum inhibitory concentrations (MIC's) in μg/ml for the compounds when evaluated against the indicated microorganisms.
# H. influ. = experiment: Agar dilution MIC, H. influenza; conditions: read-out: MIC
# Text: as §2
# Staph. aureus = experiment: Agar dilution MIC, Staph. aureus; conditions: Staphylococcus aureus, read-out: MIC
# Text: as §2
# Strep. PN = experiment: Agar dilution MIC, Strep. PN; conditions: Table I, strain PARK; read-out: MIC
# Text: as §2
# [1] = Table II expanded spectrum, strain EPI1
smiles,measurement,setting,value
"CC1=C(C(=O)O)N2C(=O)C(NC(=O)[C@H](N)c3ccc4cc(Cl)ccc4c3)C2SC1 (stereo partly drawn) [Example 7, D-7-(6-chloronaphth-2-ylglycylamido)-3-methyl-3-cephem-4-carboxylic acid]",MIC,Strep. A,0.06 µg/mL
same,MIC,Klebsiella,8 µg/mL
same,MIC,"Staph. epi; Table I, strain 222",0.5 µg/mL
same,MIC,"Staph. epi; Table I, strain EPI1",4 µg/mL
same,MIC,Staph. epi; [1],8 µg/mL
same,MIC,"Staph. epi; Table II, strain 269",4 µg/mL
same,MIC,"Staph. epi; Table II, strain 270",4 µg/mL
same,MIC,"Staph. epi; Table II, strain 285",2 µg/mL
same,MIC,"Staph. epi; Table II, strain 286",1 µg/mL
same,MIC,"H. influ.; Table I, strain BRUN",32 µg/mL
same,MIC,"H. influ.; Table II, strain 76",16 µg/mL
same,MIC,"H. influ.; Table II, strain 1930",16 µg/mL
same,MIC,"H. influ.; Table II, strain C.L.",32 µg/mL
same,MIC,"H. influ.; Table II, strain HESS",32 µg/mL
same,MIC,"H. influ.; Table II, strain M366",> 64 µg/mL
same,MIC,"H. influ.; Table II, strain R465",32 µg/mL
same,MIC,"H. influ.; Table II, strain STEL",> 64 µg/mL
same,MIC,"Staph. aureus; Table I, strain V41",8 µg/mL
same,MIC,"Staph. aureus; Table I, strain X1.1",0.25 µg/mL
same,MIC,"Staph. aureus; Table I, strain X400",64 µg/mL
same,MIC,"Staph. aureus; Table II, strain S224",0.5 µg/mL
same,MIC,"Staph. aureus; Table II, strain S225",0.5 µg/mL
same,MIC,"Staph. aureus; Table II, strain S226",1 µg/mL
same,MIC,"Staph. aureus; Table II, strain S227",0.5 µg/mL
same,MIC,"Staph. aureus; Table II, strain S228",0.5 µg/mL
same,MIC,"Staph. aureus; Table II, strain S229",1 µg/mL
same,MIC,"Staph. aureus; Table II, strain S230",0.5 µg/mL
same,MIC,"Staph. aureus; Table II, strain S231",0.25 µg/mL
same,MIC,"Staph. aureus; Table II, strain S234",1 µg/mL
same,MIC,"Staph. aureus; Table II, strain S237",0.5 µg/mL
same,MIC,"Staph. aureus; Table II, strain S238",1 µg/mL
same,MIC,"Staph. aureus; Table II, strain S239",1 µg/mL
same,MIC,Strep. PN,0.25 µg/mL
"COCC1=C(C(=O)O)N2C(=O)C(NC(=O)[C@H](N)c3ccc4ccccc4c3)C2SC1 (some centres unmarked) [Example 8, 7-(2-Naphthylglycylamido)-3-methoxymethyl-3-cephem-4-carboxylic acid]",MIC,Staph. epi; [1],4 µg/mL
same,MIC,"Staph. epi; Table II, strain 219",0.5 µg/mL
same,MIC,"Staph. epi; Table II, strain 269",2 µg/mL
same,MIC,"Staph. epi; Table II, strain 270",2 µg/mL
same,MIC,"Staph. epi; Table II, strain 285",1 µg/mL
same,MIC,"Staph. epi; Table II, strain 286",0.5 µg/mL
same,MIC,"H. influ.; Table II, strain 76",8 µg/mL
same,MIC,"H. influ.; Table II, strain 105",8 µg/mL
same,MIC,"H. influ.; Table II, strain 158",8 µg/mL
same,MIC,"H. influ.; Table II, strain 164",8 µg/mL
same,MIC,"H. influ.; Table II, strain 169",8 µg/mL
same,MIC,"H. influ.; Table II, strain 171",8 µg/mL
same,MIC,"H. influ.; Table II, strain 312",8 µg/mL
same,MIC,"H. influ.; Table II, strain 1930",16 µg/mL
same,MIC,"H. influ.; Table II, strain 4842",8 µg/mL
same,MIC,"H. influ.; Table II, strain C.L.",8 µg/mL
same,MIC,"H. influ.; Table II, strain HESS",8 µg/mL
same,MIC,"H. influ.; Table II, strain M366",> 64 µg/mL
same,MIC,"H. influ.; Table II, strain R465",16 µg/mL
same,MIC,"H. influ.; Table II, strain STEL",> 64 µg/mL
same,MIC,"Staph. aureus; Table II, strain S224",0.5 µg/mL
same,MIC,"Staph. aureus; Table II, strain S225",0.5 µg/mL
same,MIC,"Staph. aureus; Table II, strain S226",1 µg/mL
same,MIC,"Staph. aureus; Table II, strain S227",0.5 µg/mL
same,MIC,"Staph. aureus; Table II, strain S228",0.5 µg/mL
same,MIC,"Staph. aureus; Table II, strain S229",1 µg/mL
same,MIC,"Staph. aureus; Table II, strain S230",0.5 µg/mL
same,MIC,"Staph. aureus; Table II, strain S231",0.5 µg/mL
same,MIC,"Staph. aureus; Table II, strain S234",1 µg/mL
same,MIC,"Staph. aureus; Table II, strain S237",0.5 µg/mL
same,MIC,"Staph. aureus; Table II, strain S238",1 µg/mL
same,MIC,"Staph. aureus; Table II, strain S239",1 µg/mL
